From ChEMBL document CHEMBL3751805, “Novel Tacrine-Benzofuran Hybrids as Potent Multitarget-Directed Ligands for the Treatment of Alzheimer's Disease: Design, Synthesis, Biological Evaluation, and X-ray Crystallography” (J Med Chem, 2016)
Active and inactive are the calls of the source. The calls are words filed in the database; no cut-off is given here.

What was measured:
Acetylcholinesterase [1] = target: T1, Acetylcholinesterase (Torpedo californica, UniProt P04058); assay: Noncompetitive inhibition of Torpedo californica AChE using ATCh as substrate preincubated for 90 mins followed by substrate addition by potentiometric titration method; design: species or system Tetronarce californica
[2] = target: Acetylcholinesterase (Torpedo californica) (UniProt P04058); conditions: Tetronarce californica
Description: Noncompetitive inhibition of Torpedo californica AChE using ATCh as substrate assessed as second order association constant preincubated for 90 mins followed by substrate addition by potentiometric titration method

Mus musculus [3] = assay: Hepatotoxicity in ICR mouse assessed as serum aspartate aminotransferase level dosed ig at equimolar dose of 30 mg/kg tacrine after 8 hrs by spectrophotometry analysis (reference value: 113.3 +/- 30 U/L); type: toxicity, organism-based; conditions: in vivo, po
Acetylcholinesterase [4] = target: T1, Acetylcholinesterase; assay: Competitive inhibition of Torpedo californica AChE using ATCh as substrate preincubated for 90 mins followed by substrate addition by potentiometric titration method; design: species or system Tetronarce californica
Mus musculus [5] = assay: Hepatotoxicity in ICR mouse assessed as elevation in serum aspartate aminotransferase level dosed ig at equimolar dose of 30 mg/kg tacrine after 8 hrs by spectrophotometry analysis relative to control; type: toxicity, organism-based; conditions: in vivo, po
Mus musculus [6] = type: toxicity, organism-based, ICR; conditions: in vivo, po, 30 mg/kg, 8 h
Acetylcholinesterase [7] = target: T1, Acetylcholinesterase; assay: Competitive inhibition of Torpedo californica AChE using ATCh as substrate assessed as dissociation rate constant preincubated for 90 mins followed by substrate addition by potentiometric titration method; design: species or system Tetronarce californica
Mus musculus [8] = assay: Hepatotoxicity in ICR mouse assessed as serum alanine aminotransferase level dosed ig at equimolar dose of 30 mg/kg tacrine after 22 hrs by spectrophotometry analysis (reference value: 40.1 +/- 9.9 U/L); type: toxicity, organism-based; conditions: in vivo, po
Mus musculus [9] = assay: Hepatotoxicity in ICR mouse assessed as serum alanine aminotransferase level dosed ig at equimolar dose of 30 mg/kg tacrine after 36 hrs by spectrophotometry analysis (reference value: 38.1 +/- 8.2 U/L); type: toxicity, organism-based; conditions: in vivo, po
Acetylcholinesterase [10] = target: T1, Acetylcholinesterase; assay: Noncompetitive inhibition of Torpedo californica AChE using ATCh as substrate assessed as dissociation rate constant preincubated for 90 mins followed by substrate addition by potentiometric titration method; design: species or system Tetronarce californica
[11] = target: Acetylcholinesterase (Torpedo californica) (UniProt P04058); conditions: Tetronarce californica; 0.3 nM
Cholinesterase = Cholinesterase (Homo sapiens, UniProt P06276)
Description: Inhibition of human serum BChE using butyrylthiocholine iodide as substrate preincubated for 20 mins followed by substrate addition by Ellman's method

Beta-secretase 1 [12] = target: T2, Beta-secretase 1 (Homo sapiens, UniProt P56817)
Description: Inhibition of recombinant human BACE-1 using M-2420 as substrate preincubated for 1 hr followed by substrate addition measured after 15 mins by FRET assay

Mus musculus [13] = type: toxicity, organism-based, ICR; conditions: in vivo, po, 30 mg/kg, 36 h
Mus musculus [14] = assay: Hepatotoxicity in ICR mouse assessed as serum aspartate aminotransferase level dosed ig at equimolar dose of 30 mg/kg tacrine after 22 hrs by spectrophotometry analysis (reference value: […] +/- 31.1 U/L); type: toxicity, organism-based; conditions: in vivo, po
in vitro = conditions: human, SH-SY5Y cells
Description: Cytotoxicity against human SH-SY5Y cells assessed as cell viability at 30 uM after 48 hrs by MTT assay

[15] = target: Acetylcholinesterase (Torpedo californica) (UniProt P04058); conditions: Tetronarce californica; remark: listed apart in the source
Description: Competitive inhibition of Torpedo californica AChE using ATCh as substrate assessed as second order association constant preincubated for 90 mins followed by substrate addition by potentiometric titration method

[16] = target: Acetylcholinesterase (Torpedo californica) (UniProt P04058); conditions: Tetronarce californica; 1 to 10 nM
Mus musculus [17] = assay: Hepatotoxicity in ICR mouse assessed as elevation in serum alanine aminotransferase level dosed ig at equimolar dose of 30 mg/kg tacrine after 8 hrs by spectrophotometry analysis relative to control; type: toxicity, organism-based; conditions: in vivo, po
Acetylcholinesterase [18] = target: T3, Acetylcholinesterase (Homo sapiens, UniProt P22303); assay: Mixed-type inhibition of recombinant human AChE using acetylthiocholine iodide as substrate assessed as enzyme-inhibitor complex by Lineweaver-Burk double reciprocal plot method
[19] = target: T4, Amyloid-beta precursor protein (Homo sapiens, UniProt P05067); conditions: at 10 µM
Description: Inhibition of HFIP pretreated Amyloid beta (1 to 42) (unknown origin) self-induced aggregation at 10 uM incubated for 24 hrs by Thioflavin T-based fluorometric assay

Acetylcholinesterase [20] = target: T3, Acetylcholinesterase; assay: Mixed-type inhibition of recombinant human AChE using acetylthiocholine iodide as substrate assessed as enzyme-substrate-inhibitor complex by Lineweaver-Burk double reciprocal plot method
Acetylcholinesterase [21] = target: T3, Acetylcholinesterase
Description: Inhibition of recombinant human AChE using acetylthiocholine iodide as substrate preincubated for 20 mins followed by substrate addition by Ellman's method

SH-SY5Y = assay: Cytotoxicity against human SH-SY5Y cells assessed as reduction in cell viability at 3 to 30 uM after 48 hrs by MTT assay; type: cell-based
[22] = target: T4, Amyloid-beta precursor protein; assay: Inhibition of Amyloid beta (1 to 42) (unknown origin) self-induced aggregation incubated for 24 hrs by Thioflavin T-based fluorometric assay
Beta-secretase 1 [23] = target: T2, Beta-secretase 1; assay: Inhibition of BACE-1 (unknown origin) using M-2420 as substrate preincubated for 1 hr followed by substrate addition measured after 15 mins by FRET assay

Sequence of Cholinesterase (P06276 whole entry): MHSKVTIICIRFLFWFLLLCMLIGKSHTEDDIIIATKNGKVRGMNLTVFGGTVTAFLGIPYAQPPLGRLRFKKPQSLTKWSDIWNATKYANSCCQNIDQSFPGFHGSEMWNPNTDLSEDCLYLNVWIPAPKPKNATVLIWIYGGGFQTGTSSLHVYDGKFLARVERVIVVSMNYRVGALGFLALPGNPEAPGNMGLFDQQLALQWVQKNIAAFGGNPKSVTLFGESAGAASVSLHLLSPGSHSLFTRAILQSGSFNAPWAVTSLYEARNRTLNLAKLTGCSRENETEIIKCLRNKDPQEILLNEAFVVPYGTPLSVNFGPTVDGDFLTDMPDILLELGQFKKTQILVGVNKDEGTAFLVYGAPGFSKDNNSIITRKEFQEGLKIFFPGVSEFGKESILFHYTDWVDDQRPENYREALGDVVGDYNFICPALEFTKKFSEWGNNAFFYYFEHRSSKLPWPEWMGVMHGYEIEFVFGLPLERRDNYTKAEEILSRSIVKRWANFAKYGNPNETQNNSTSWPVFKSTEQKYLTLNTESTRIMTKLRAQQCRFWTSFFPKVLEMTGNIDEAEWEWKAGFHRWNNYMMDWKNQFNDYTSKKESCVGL
Sequence of Acetylcholinesterase (Torpedo californica) (P04058 22-564 limits assumed): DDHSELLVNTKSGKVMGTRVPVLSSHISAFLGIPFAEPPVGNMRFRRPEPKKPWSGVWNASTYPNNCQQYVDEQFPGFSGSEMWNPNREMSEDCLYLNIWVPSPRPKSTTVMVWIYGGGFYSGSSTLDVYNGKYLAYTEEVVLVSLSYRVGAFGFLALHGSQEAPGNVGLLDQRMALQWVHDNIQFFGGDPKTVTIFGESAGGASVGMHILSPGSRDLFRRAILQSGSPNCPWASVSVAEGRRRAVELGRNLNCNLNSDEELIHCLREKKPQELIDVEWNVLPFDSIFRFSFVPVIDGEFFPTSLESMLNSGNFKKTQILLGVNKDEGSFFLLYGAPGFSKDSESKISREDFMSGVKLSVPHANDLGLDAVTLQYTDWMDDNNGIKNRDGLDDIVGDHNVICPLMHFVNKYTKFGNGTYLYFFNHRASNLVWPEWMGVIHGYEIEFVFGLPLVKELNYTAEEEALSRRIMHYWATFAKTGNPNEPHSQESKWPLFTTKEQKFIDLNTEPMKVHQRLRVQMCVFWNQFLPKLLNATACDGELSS
T4 sequence (P05067 whole entry): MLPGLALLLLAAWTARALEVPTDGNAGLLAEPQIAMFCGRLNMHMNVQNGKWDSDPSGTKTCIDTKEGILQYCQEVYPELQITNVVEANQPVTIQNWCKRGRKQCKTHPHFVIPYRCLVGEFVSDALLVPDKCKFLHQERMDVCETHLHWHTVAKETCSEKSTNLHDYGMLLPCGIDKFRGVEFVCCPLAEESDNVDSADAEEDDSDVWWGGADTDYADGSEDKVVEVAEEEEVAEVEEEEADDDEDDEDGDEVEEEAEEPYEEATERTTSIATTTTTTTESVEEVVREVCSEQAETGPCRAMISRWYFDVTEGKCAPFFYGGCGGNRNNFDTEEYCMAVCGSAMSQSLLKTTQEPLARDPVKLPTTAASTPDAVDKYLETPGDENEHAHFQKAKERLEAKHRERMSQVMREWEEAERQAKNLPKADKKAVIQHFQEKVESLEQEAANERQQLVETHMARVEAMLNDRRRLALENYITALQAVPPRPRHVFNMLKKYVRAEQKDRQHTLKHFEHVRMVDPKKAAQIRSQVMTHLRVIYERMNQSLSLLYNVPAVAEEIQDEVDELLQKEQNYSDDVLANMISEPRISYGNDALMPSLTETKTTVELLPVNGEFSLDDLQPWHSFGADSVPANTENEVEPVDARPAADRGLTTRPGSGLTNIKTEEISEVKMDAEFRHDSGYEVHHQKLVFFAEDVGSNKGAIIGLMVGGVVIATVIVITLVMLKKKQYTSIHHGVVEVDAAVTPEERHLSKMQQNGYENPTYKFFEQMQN
T2 sequence (P56817 whole entry): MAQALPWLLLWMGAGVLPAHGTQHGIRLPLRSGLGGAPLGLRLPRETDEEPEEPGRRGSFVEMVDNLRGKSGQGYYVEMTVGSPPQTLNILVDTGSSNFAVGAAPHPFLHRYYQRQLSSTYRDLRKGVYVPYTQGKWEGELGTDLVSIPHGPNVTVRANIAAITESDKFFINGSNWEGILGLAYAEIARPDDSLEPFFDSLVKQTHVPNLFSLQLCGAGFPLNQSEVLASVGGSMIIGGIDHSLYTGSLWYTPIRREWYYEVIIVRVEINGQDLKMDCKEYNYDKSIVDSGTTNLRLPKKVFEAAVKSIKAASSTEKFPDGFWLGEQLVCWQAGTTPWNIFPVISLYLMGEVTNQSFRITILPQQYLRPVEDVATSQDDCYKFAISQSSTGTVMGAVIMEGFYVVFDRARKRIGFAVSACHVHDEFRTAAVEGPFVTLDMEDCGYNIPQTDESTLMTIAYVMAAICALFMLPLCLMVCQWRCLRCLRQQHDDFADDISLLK
T3 sequence (P22303 whole entry): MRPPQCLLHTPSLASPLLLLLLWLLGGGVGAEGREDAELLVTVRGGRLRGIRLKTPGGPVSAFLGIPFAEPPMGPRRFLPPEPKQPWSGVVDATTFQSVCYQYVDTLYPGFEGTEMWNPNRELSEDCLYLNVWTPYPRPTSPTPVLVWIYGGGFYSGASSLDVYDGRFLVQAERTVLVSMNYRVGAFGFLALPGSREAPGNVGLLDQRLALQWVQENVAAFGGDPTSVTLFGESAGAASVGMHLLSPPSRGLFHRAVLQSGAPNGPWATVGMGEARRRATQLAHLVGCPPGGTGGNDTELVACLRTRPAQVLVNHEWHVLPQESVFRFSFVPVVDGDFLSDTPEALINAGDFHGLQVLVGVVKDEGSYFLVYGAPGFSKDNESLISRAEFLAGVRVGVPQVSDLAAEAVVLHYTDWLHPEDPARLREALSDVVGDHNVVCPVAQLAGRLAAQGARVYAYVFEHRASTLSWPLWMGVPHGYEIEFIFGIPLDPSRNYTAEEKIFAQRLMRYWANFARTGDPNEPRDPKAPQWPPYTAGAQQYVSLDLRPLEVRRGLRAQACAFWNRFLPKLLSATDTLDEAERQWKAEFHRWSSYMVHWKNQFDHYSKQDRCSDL
T1 sequence (P04058 whole entry): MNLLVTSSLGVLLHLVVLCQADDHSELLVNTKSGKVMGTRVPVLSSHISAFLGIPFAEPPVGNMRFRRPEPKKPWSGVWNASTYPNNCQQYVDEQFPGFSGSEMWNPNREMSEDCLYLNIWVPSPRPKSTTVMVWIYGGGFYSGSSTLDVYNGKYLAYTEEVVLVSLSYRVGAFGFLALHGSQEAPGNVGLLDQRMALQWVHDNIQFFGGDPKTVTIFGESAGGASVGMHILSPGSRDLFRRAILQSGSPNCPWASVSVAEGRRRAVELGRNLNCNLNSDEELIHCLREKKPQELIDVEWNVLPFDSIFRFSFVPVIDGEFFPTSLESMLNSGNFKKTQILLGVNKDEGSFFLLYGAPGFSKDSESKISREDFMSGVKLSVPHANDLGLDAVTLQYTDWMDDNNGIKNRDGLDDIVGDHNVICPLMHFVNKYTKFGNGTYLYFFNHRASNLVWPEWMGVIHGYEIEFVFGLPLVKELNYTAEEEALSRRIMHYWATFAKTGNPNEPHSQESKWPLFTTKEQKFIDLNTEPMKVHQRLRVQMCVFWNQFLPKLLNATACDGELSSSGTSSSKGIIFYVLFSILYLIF

Row | SMILES | IC50 (Cholinesterase) | inhibition [19] | IC50 (Acetylcholinesterase [21]) | also measured
1 | c1ccc2oc(CNCCCCCCCNc3c4c(nc5ccccc35)CCCC4)cc2c1 | 2.18 nM | 61.3% | 0.86 nM | Ki (Acetylcholinesterase [1]): 2.1 nM; Ka [2]: 1.45 ×10⁷ /M/s; Activity (Mus musculus [3]): 138.3 U/L; Ki (Acetylcholinesterase [4]): 2.2 nM; fold change (FC) (Mus musculus [5]): 1.22; Activity (Mus musculus [6]): 45.1 U/L; Kd (Acetylcholinesterase [7]): 0.032 s⁻¹; Activity (Mus musculus [8]): 48.2 U/L; Activity (Mus musculus [9]): 42 U/L; Kd (Acetylcholinesterase [10]): 0.031 s⁻¹; inhibition [11]: Active; IC50 (Beta-secretase 1 [12]): 1350 nM; Activity (Mus musculus [13]): 114.7 U/L; Activity (Mus musculus [14]): 134.5 U/L; viability at 48 h, 30 µM (in vitro): 63%; Ka [15]: 1.45 ×10⁷ /M/s; inhibition [16]: Active; fold change (FC) (Mus musculus [17]): 1.16; Ki (Acetylcholinesterase [18]): 0.72 nM; Ki (Acetylcholinesterase [20]): 1.04 nM
2 | c1ccc2oc(CN(CCCCCCCNc3c4c(nc5ccccc35)CCC4)Cc3cc4ccccc4o3)cc2c1 | 12.8 nM | 30.7% | 222 nM | 
3 | COc1cccc2cc(C(=O)NCCCCCCCNc3c4c(nc5ccccc35)CCCCC4)oc12 | 31.9 nM | 17.7% | 416 nM | 
4 | O=C(NCCCCCCNc1c2c(nc3ccccc13)CCC2)c1cc2ccccc2o1 | 15.7 nM | 18.7% | 545 nM | 
5 | O=C(NCCCCCCNc1c2c(nc3ccccc13)CCCCC2)c1cc2ccccc2o1 | 10.8 nM | 24.2% | 308 nM | 
6 | O=C(NCCCCCCCNc1c2c(nc3ccccc13)CCCC2)c1cc2ccccc2o1 | 6.9 nM | 26.2% | 76.9 nM | Activity (SH-SY5Y): Toxic
7 | COc1cccc2cc(C(=O)NCCCCCCNc3c4c(nc5ccccc35)CCCCC4)oc12 | 30 nM | 18.7% | 32.3 nM | 
8 | COc1cccc2cc(CNCCCCCCCNc3c4c(nc5ccccc35)CCCCC4)oc12 | 1.23 nM | 31.9% | 2.56 nM | 
9 | O=C(NCCCCCCNc1c2c(nc3ccccc13)CCCC2)c1cc2ccccc2o1 | 4.68 nM | 13.7% | 424 nM | 
10 | COc1cccc2cc(CN(CCCCCCCNc3c4c(nc5ccccc35)CCCCC4)Cc3cc4cccc(OC)c4o3)oc12 | 4.87 nM | 37.3% | 199 nM | 
11 | COc1cccc2cc(CNCCCCCCNc3c4c(nc5ccccc35)CCCC4)oc12 | 0.49 nM | 52% | 15.3 nM | 
12 | O=C(NCCCCCCCNc1c2c(nc3ccccc13)CCC2)c1cc2ccccc2o1 | 30.9 nM | 10.2% | 48.6 nM | 
13 | c1ccc2oc(CN(CCCCCCCNc3c4c(nc5ccccc35)CCCCC4)Cc3cc4ccccc4o3)cc2c1 | 17.9 nM | 39.8% | 200 nM | 
14 | COc1cccc2cc(CN(CCCCCCNc3c4c(nc5ccccc35)CCC4)Cc3cc4cccc(OC)c4o3)oc12 | 2.3 nM | 38.5% | 7490 nM | 
15 | O=C(NCCCCCCCNc1c2c(nc3ccccc13)CCCCC2)c1cc2ccccc2o1 | 11.6 nM | 17.3% | 323 nM | 
16 | COc1cccc2cc(CN(CCCCCCNc3c4c(nc5ccccc35)CCCC4)Cc3cc4cccc(OC)c4o3)oc12 | 0.48 nM | 44.6% | 260 nM | IC50 (Beta-secretase 1 [12]): 190 nM; Activity (SH-SY5Y): Toxic
17 | COc1cccc2cc(C(=O)NCCCCCCCNc3c4c(nc5ccccc35)CCC4)oc12 | 26.1 nM | 19.6% | 993 nM | 
18 | c1ccc2oc(CNCCCCCCNc3c4c(nc5ccccc35)CCC4)cc2c1 | 2.48 nM | 9.3% | 47 nM | 
19 | COc1cccc2cc(C(=O)NCCCCCCNc3c4c(nc5ccccc35)CCCC4)oc12 | 10.2 nM | 40.2% | 24.4 nM | 
20 | c1ccc2c(NCCCCCCCNc3c4c(nc5ccccc35)CCCC4)c3c(nc2c1)CCCC3 |  | 50.1% |  | IC50 [22]: 8400 nM
21 | NC1=NC(c2ccc(F)cc2)NC(=O)N1 (stereo unspecified) |  |  |  | IC50 (Beta-secretase 1 [23]): 18000 nM
22 | COc1cccc2cc(CNCCCCCCNc3c4c(nc5ccccc35)CCC4)oc12 | 1.3 nM | 64.1% | 63.1 nM | 
23 | c1ccc2oc(CN(CCCCCCCNc3c4c(nc5ccccc35)CCCC4)Cc3cc4ccccc4o3)cc2c1 | 6.86 nM | 44.5% | 117 nM | IC50 (Beta-secretase 1 [12]): 620 nM
24 | COc1cccc2cc(C(=O)NCCCCCCCNc3c4c(nc5ccccc35)CCCC4)oc12 | 7.35 nM | 42.5% | 44.2 nM | IC50 (Beta-secretase 1 [12]): 430 nM
25 | COc1cccc2cc(CN(CCCCCCNc3c4c(nc5ccccc35)CCCCC4)Cc3cc4cccc(OC)c4o3)oc12 | 2.35 nM | 25% | 1040 nM | 
26 | c1ccc2oc(CN(CCCCCCNc3c4c(nc5ccccc35)CCC4)Cc3cc4ccccc4o3)cc2c1 | 8.89 nM | 62.2% | 2070 nM | 
27 | COc1cccc2cc(C(=O)NCCCCCCNc3c4c(nc5ccccc35)CCC4)oc12 | 80.6 nM | 32.6% | 1680 nM | 
28 | c1ccc2oc(CNCCCCCCCNc3c4c(nc5ccccc35)CCC4)cc2c1 | 2.54 nM | 76.2% | 10.8 nM | 
